Laboratory results as given in ChEMBL document CHEMBL1201862, “PubChem BioAssay data set” (2004).
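Dose response: 5 concentrations. Exposure: 48 h. Format: 96-well plates. Endpoint: linear interpolation; highest concentration if not reached. The concentration for 50% growth inhibition is given as GI50.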 Activity calls are given as the source filed them. Cut-off read from the data, not from the text of the source: active = GI50 up to about 1.1 µM and inactive = higher.

Tests used:
Experiment in all cases: inhibition of tumour cell growth, NCI panel, 48 h
KM12 = test system: KM12
MDA-N = test system: MDA-N
SK-MEL-28 = test system: SK-MEL-28
Hs-578T = test system: Hs-578T
M14 = test system: M14
SF-268 = test system: SF-268
NCI/ADR-RES = test system: NCI/ADR-RES
MDA-MB-435 = test system: MDA-MB-435
NCI-H23 = test system: NCI-H23
UACC-62 = test system: UACC-62
HCT-116 = test system: HCT-116
K562 = test system: K562
HT-29 = test system: HT-29
MOLT-4 = test system: MOLT-4
SW-620 = test system: SW-620
HL-60 = test system: HL-60
SF-295 = test system: SF-295
OVCAR-8 = test system: OVCAR-8
SK-MEL-2 = test system: SK-MEL-2
HOP-62 = test system: HOP-62
HOP-92 = test system: HOP-92
OVCAR-5 = test system: OVCAR-5
HCC 2998 = test system: HCC 2998
UACC-257 = test system: UACC-257
IGROV-1 = test system: IGROV-1
NCI-H460 = test system: NCI-H460
NCI-H226 = test system: NCI-H226
A549 = test system: A549
SNB-75 = test system: SNB-75
OVCAR-4 = test system: OVCAR-4
OVCAR-3 = test system: OVCAR-3
ACHN = test system: ACHN
NCI-H522 = test system: NCI-H522
LOX IMVI = test system: LOX IMVI
RPMI-8226 = test system: RPMI-8226
786-0 = test system: 786-0
DU-145 = test system: DU-145
PC-3 = test system: PC-3
MDA-MB-231 = test system: MDA-MB-231
SN12C = test system: SN12C
SF-539 = test system: SF-539
T47D = test system: T47D
SK-OV-3 = test system: SK-OV-3
SK-MEL-5 = test system: SK-MEL-5
TK-10 = test system: TK-10
COLO 205 = test system: COLO 205
MCF7 = test system: MCF7
SNB-19 = test system: SNB-19
RXF 393 = test system: RXF 393
HCT-15 = test system: HCT-15
BT-549 = test system: BT-549
Malme-3M = test system: Malme-3M
CCRF-CEM = test system: CCRF-CEM
A498 = test system: A498
EKVX = test system: EKVX
CAKI-1 = test system: CAKI-1
U-251 = test system: U-251
SR = test system: SR
UO-31 = test system: UO-31

## O=C1N/C(=N/N=C/C(O)C(O)C(O)C(O)CO)N/C1=C\c1cccs1 (configuration not stated)
KM12
  GI50: > 100 µM (inactive)
MDA-N
  GI50: > 100 µM (inactive)
SK-MEL-28
  GI50: > 100 µM (inactive)
Hs-578T
  GI50: > 100 µM (inactive)
M14
  GI50: > 100 µM (inactive)
SF-268
  GI50: > 100 µM (inactive)
NCI/ADR-RES
  GI50: > 100 µM (inactive)
MDA-MB-435
  GI50: > 100 µM (inactive)
NCI-H23
  GI50: > 100 µM (inactive)
UACC-62
  GI50: > 100 µM (inactive)
HCT-116
  GI50: > 100 µM (inactive)
K562
  GI50: > 100 µM (inactive)
HT-29
  GI50: > 100 µM (inactive)
MOLT-4
  GI50: > 100 µM (inactive)
SW-620
  GI50: > 100 µM (inactive)
HL-60
  GI50: > 100 µM (inactive)
SF-295
  GI50: > 100 µM (inactive)
OVCAR-8
  GI50: > 100 µM (inactive)
SK-MEL-2
  GI50: > 100 µM (inactive)
HOP-62
  GI50: > 100 µM (inactive)
HOP-92
  GI50: > 100 µM (inactive)
OVCAR-5
  GI50: > 100 µM (inactive)
HCC 2998
  GI50: > 100 µM (inactive)
UACC-257
  GI50: > 100 µM (inactive)
IGROV-1
  GI50: > 100 µM (inactive)
NCI-H460
  GI50: > 100 µM (inactive)
NCI-H226
  GI50: > 100 µM (inactive)
A549
  GI50: 94.4 µM (inactive)
SNB-75
  GI50: > 100 µM (inactive)
OVCAR-4
  GI50: > 100 µM (inactive)
OVCAR-3
  GI50: > 100 µM (inactive)
ACHN
  GI50: > 100 µM (inactive)
NCI-H522
  GI50: 88.5 µM (inactive)
LOX IMVI
  GI50: > 100 µM (inactive)
RPMI-8226
  GI50: > 100 µM (inactive)
786-0
  GI50: > 100 µM (inactive)
DU-145
  GI50: > 100 µM (inactive)
PC-3
  GI50: > 100 µM (inactive)
MDA-MB-231
  GI50: > 100 µM (inactive)
SN12C
  GI50: > 100 µM (inactive)
SF-539
  GI50: > 100 µM (inactive)
T47D
  GI50: 93.8 µM (inactive)
SK-OV-3
  GI50: > 100 µM (inactive)
SK-MEL-5
  GI50: > 100 µM (inactive)
TK-10
  GI50: > 100 µM (inactive)
COLO 205
  GI50: > 100 µM (inactive)
MCF7
  GI50: > 100 µM (inactive)
SNB-19
  GI50: > 100 µM (inactive)
RXF 393
  GI50: > 100 µM (inactive)
HCT-15
  GI50: > 100 µM
BT-549
  GI50: > 100 µM (inactive)
Malme-3M
  GI50: > 100 µM (inactive)
CCRF-CEM
  GI50: > 100 µM (inactive)
A498
  GI50: 73.1 µM (inactive)
EKVX
  GI50: 87.1 µM (inactive)
CAKI-1
  GI50: > 100 µM (inactive)
U-251
  GI50: > 100 µM (inactive)

## CO[C@@H](c1ccccc1)[C@H](O)[C@](O)(c1ccccc1)P(=O)(OC)OC
KM12
  GI50: > 100 µM (inactive)
MDA-N
  GI50: > 100 µM (inactive)
SK-MEL-28
  GI50: > 100 µM (inactive)
Hs-578T
  GI50: > 100 µM (inactive)
M14
  GI50: > 100 µM (inactive)
SF-268
  GI50: > 100 µM (inactive)
NCI/ADR-RES
  GI50: > 100 µM (inactive)
MDA-MB-435
  GI50: > 100 µM (inactive)
NCI-H23
  GI50: > 100 µM (inactive)
SR
  GI50: > 100 µM (inactive)
UACC-62
  GI50: > 100 µM (inactive)
HCT-116
  GI50: > 100 µM (inactive)
K562
  GI50: > 100 µM (inactive)
HT-29
  GI50: > 100 µM (inactive)
MOLT-4
  GI50: > 100 µM (inactive)
SW-620
  GI50: > 100 µM (inactive)
HL-60
  GI50: > 100 µM (inactive)
SF-295
  GI50: > 100 µM (inactive)
OVCAR-8
  GI50: > 100 µM (inactive)
SK-MEL-2
  GI50: > 100 µM (inactive)
HOP-92
  GI50: 91.6 µM (inactive)
OVCAR-5
  GI50: > 100 µM (inactive)
HCC 2998
  GI50: > 100 µM (inactive)
UACC-257
  GI50: > 100 µM (inactive)
IGROV-1
  GI50: > 100 µM (inactive)
NCI-H460
  GI50: > 100 µM (inactive)
NCI-H226
  GI50: > 100 µM (inactive)
A549
  GI50: > 100 µM (inactive)
SNB-75
  GI50: > 100 µM (inactive)
OVCAR-4
  GI50: > 100 µM (inactive)
OVCAR-3
  GI50: > 100 µM (inactive)
ACHN
  GI50: > 100 µM (inactive)
NCI-H522
  GI50: > 100 µM (inactive)
LOX IMVI
  GI50: > 100 µM (inactive)
RPMI-8226
  GI50: > 100 µM (inactive)
786-0
  GI50: > 100 µM (inactive)
DU-145
  GI50: > 100 µM (inactive)
PC-3
  GI50: > 100 µM (inactive)
MDA-MB-231
  GI50: > 100 µM (inactive)
SN12C
  GI50: > 100 µM (inactive)
SF-539
  GI50: > 100 µM (inactive)
T47D
  GI50: > 100 µM (inactive)
SK-OV-3
  GI50: > 100 µM (inactive)
SK-MEL-5
  GI50: > 100 µM (inactive)
TK-10
  GI50: > 100 µM (inactive)
COLO 205
  GI50: > 100 µM (inactive)
SNB-19
  GI50: > 100 µM (inactive)
RXF 393
  GI50: > 100 µM (inactive)
HCT-15
  GI50: > 100 µM
BT-549
  GI50: 47.6 µM (inactive)
Malme-3M
  GI50: > 100 µM (inactive)
CCRF-CEM
  GI50: > 100 µM (inactive)
A498
  GI50: > 100 µM (inactive)
EKVX
  GI50: > 100 µM (inactive)
CAKI-1
  GI50: > 100 µM (inactive)
UO-31
  GI50: > 100 µM (inactive)
U-251
  GI50: > 100 µM (inactive)

## COC(=O)C1C(O)C(C)C(O)C(C)/C=C\C=C(C)C(=O)Nc2c(C)c(OC(C)=O)c3c(c2O)C(=O)C(C)=C2OCOC(=C23)C(C)=CC(C)(O)C(O)C(C)C1O (configuration not stated)
MDA-N
  GI50: 59.8 µM (inactive)
SK-MEL-28
  GI50: 47 µM (inactive)
Hs-578T
  GI50: > 100 µM (inactive)
M14
  GI50: 38.9 µM (inactive)
SF-268
  GI50: 68.4 µM (inactive)
MDA-MB-435
  GI50: 68.4 µM (inactive)
SR
  GI50: 96.4 µM (inactive)
HCT-116
  GI50: 30.3 µM (inactive)
HT-29
  GI50: 42.5 µM (inactive)
SW-620
  GI50: 35.5 µM (inactive)
HL-60
  GI50: 29.4 µM (inactive)
OVCAR-8
  GI50: 34 µM (inactive)
SK-MEL-2
  GI50: 32.3 µM (inactive)
HOP-92
  GI50: 60.4 µM (inactive)
UACC-257
  GI50: 23 µM (inactive)
IGROV-1
  GI50: 87.1 µM (inactive)
NCI-H226
  GI50: > 100 µM (inactive)
A549
  GI50: > 100 µM (inactive)
OVCAR-3
  GI50: 24.3 µM (inactive)
ACHN
  GI50: > 100 µM (inactive)
786-0
  GI50: > 100 µM (inactive)
DU-145
  GI50: > 100 µM (inactive)
PC-3
  GI50: > 100 µM (inactive)
MDA-MB-231
  GI50: 24.9 µM (inactive)
SF-539
  GI50: > 100 µM (inactive)
T47D
  GI50: 52.2 µM (inactive)
SK-MEL-5
  GI50: 41.2 µM (inactive)
TK-10
  GI50: > 100 µM (inactive)
COLO 205
  GI50: 20.4 µM (inactive)
MCF7
  GI50: 35.6 µM (inactive)
BT-549
  GI50: > 100 µM (inactive)
Malme-3M
  GI50: 36.5 µM (inactive)
UO-31
  GI50: 82.4 µM (inactive)
